From article PMC6691587, “New CXCR1/CXCR2 inhibitors represent an effective treatment for kidney or head and neck cancers sensitive or refractory to reference treatments” (Theranostics, 2019)
pIC50: −log10 of the molar value.

The compounds below were run on Molm13 (assay: XTT cell viability assay, Molm13 AML cells). Conditions: Homo sapiens, MOLM-13, 48 h, SD 10%, mean of three experiments.
Type: cell-based, human
Method: (§1) Fifty microliters of sodium 3′-[1-phenylaminocarbonyl)-3,4-tetrazolium]-bis(4-methoxy-6-nitro) benzene sulfonic acid hydrate (XTT) reagent was added to each well. The assay is based on the cleavage of the yellow tetrazolium salt XTT to form an orange formazan dye by metabolically active cells. This bio-reduction occurs in viable cells only and is related to NAD(P)H production through glycolysis. Therefore, the amount of formazan dye measured at 490 nm directly correlated with the number of metabolically active cells reflecting cell proliferation and viability. Each assay was performed in quadruplicate.

Compound | pIC50
O=C(Nc1ccc(Cl)cc1)Nc1ccc(Cl)cc1Cl [C6] | 4.66
Cc1ccc(NC(=S)Nc2ccccc2)cc1 [C7] | < 4.60
S=C(Nc1ccccc1)Nc1ccc(Cl)cc1Cl [C8] | < 4.60
O=C(Nc1ccc(Cl)cc1)Nc1ccc(Cl)cc1 [C10] | < 4.60
O=C(Nc1cccc(Cl)c1)Nc1ccccc1O [C11] | < 4.60
O=C(Nc1ccccc1)Nc1nc2ccccc2[nH]1 [C13] | 4.60

Each compound was assayed on Molm14 (assay: XTT cell viability assay, Molm14 AML cells). Conditions: Homo sapiens, MOLM-14, 48 h, SD 10%, mean of three experiments.
Type: cell-based, human
Method: as §1

Compound | pIC50
O=C(Nc1ccc(Cl)cc1)Nc1ccc(Cl)cc1Cl [C6] | < 4.60
Cc1ccc(NC(=S)Nc2ccccc2)cc1 [C7] | < 4.60
S=C(Nc1ccccc1)Nc1ccc(Cl)cc1Cl [C8] | < 4.60
O=C(Nc1ccc(Cl)cc1)Nc1ccc(Cl)cc1 [C10] | < 4.60
O=C(Nc1cccc(Cl)c1)Nc1ccccc1O [C11] | < 4.60
O=C(Nc1ccccc1)Nc1nc2ccccc2[nH]1 [C13] | 4.70

What follows are compounds tested on RCC4 (assay: XTT cell viability assay, RCC4 RCC cells). Conditions: Homo sapiens, RCC4, 48 h, SD 10%, mean of three experiments, read-out: IC50 R4 (Kidney RCC).
Type: cell-based, human
Method: as §1

Compound | pIC50
O=C(Nc1ccc(Cl)cc1)Nc1ccc(Cl)cc1Cl [C6] | < 4.60
Cc1ccc(NC(=S)Nc2ccccc2)cc1 [C7] | < 4.60
S=C(Nc1ccccc1)Nc1ccc(Cl)cc1Cl [C8] | < 4.60
O=C(Nc1ccc(Cl)cc1)Nc1ccc(Cl)cc1 [C10] | < 4.60
O=C(Nc1cccc(Cl)c1)Nc1ccccc1O [C11] | < 4.60
O=C(Nc1ccccc1)Nc1nc2ccccc2[nH]1 [C13] | 4.60

The compounds below were run on CAL33 (assay: XTT cell viability assay, CAL33 HNSCC cells). Conditions: Homo sapiens, CAL-33; XTT assay, 48 h; SD 10%; mean of three experiments; read-out: IC50 33 (HNSCC).
Type: cell-based, human
Method: as §1

Compound | pIC50
O=C(Nc1ccc(Cl)cc1)Nc1ccc(Cl)cc1Cl [C6] | < 4.60
Cc1ccc(NC(=S)Nc2ccccc2)cc1 [C7] | < 4.60
S=C(Nc1ccccc1)Nc1ccc(Cl)cc1Cl [C8] | < 4.60
O=C(Nc1ccc(Cl)cc1)Nc1ccc(Cl)cc1 [C10] | < 4.60
O=C(Nc1cccc(Cl)c1)Nc1ccccc1O [C11] | < 4.60
O=C(Nc1ccccc1)Nc1nc2ccccc2[nH]1 [C13] | 5.00

The compounds below were run on K562 (assay: XTT cell viability assay, K562 CML cells). Conditions: Homo sapiens, K562, 48 h, SD 10%, mean of three experiments.
Type: cell-based, human
Method: as §1

Compound | pIC50
O=C(Nc1ccc(Cl)cc1)Nc1ccc(Cl)cc1Cl [C6] | 4.82
Cc1ccc(NC(=S)Nc2ccccc2)cc1 [C7] | < 4.60
S=C(Nc1ccccc1)Nc1ccc(Cl)cc1Cl [C8] | < 4.60
O=C(Nc1ccc(Cl)cc1)Nc1ccc(Cl)cc1 [C10] | < 4.60
O=C(Nc1cccc(Cl)c1)Nc1ccccc1O [C11] | < 4.60
O=C(Nc1ccccc1)Nc1nc2ccccc2[nH]1 [C13] | 5.00

What follows are compounds tested on A498 (assay: XTT cell viability assay, A498 RCC cells). Conditions: Homo sapiens, A498; XTT assay, 48 h; SD 10%; mean of three experiments; read-out: IC50 498 (Kidney RCC).
Type: cell-based, human
Method: as §1

Compound | pIC50
O=C(Nc1ccc(Cl)cc1)Nc1ccc(Cl)cc1Cl [C6] | 4.66
Cc1ccc(NC(=S)Nc2ccccc2)cc1 [C7] | < 4.60
S=C(Nc1ccccc1)Nc1ccc(Cl)cc1Cl [C8] | < 4.60
O=C(Nc1ccc(Cl)cc1)Nc1ccc(Cl)cc1 [C10] | < 4.60
O=C(Nc1cccc(Cl)c1)Nc1ccccc1O [C11] | < 4.60
O=C(Nc1ccccc1)Nc1nc2ccccc2[nH]1 [C13] | 5.00

These compounds were tested on OCI-AML3 (assay: XTT cell viability assay, OCI-AML3 AML cells). Conditions: Homo sapiens, OCI-AML-3, 48 h, SD 10%, mean of three experiments, read-out: IC50 L3 (AML).
Type: cell-based, human
Method: as §1

Compound | pIC50
O=C(Nc1ccc(Cl)cc1)Nc1ccc(Cl)cc1Cl [C6] | 4.66
Cc1ccc(NC(=S)Nc2ccccc2)cc1 [C7] | < 4.60
S=C(Nc1ccccc1)Nc1ccc(Cl)cc1Cl [C8] | < 4.60
O=C(Nc1ccc(Cl)cc1)Nc1ccc(Cl)cc1 [C10] | < 4.60
O=C(Nc1cccc(Cl)c1)Nc1ccccc1O [C11] | < 4.60
O=C(Nc1ccccc1)Nc1nc2ccccc2[nH]1 [C13] | 4.60

Each compound was assayed on SKM1 (assay: XTT cell viability assay, SKM1 MDS cells). Conditions: Homo sapiens, SKM-1, 48 h, SD 10%, mean of three experiments, read-out: IC50 SK (MDS).
Type: cell-based, human
Method: as §1

Compound | pIC50
O=C(Nc1ccc(Cl)cc1)Nc1ccc(Cl)cc1Cl [C6] | < 4.60
Cc1ccc(NC(=S)Nc2ccccc2)cc1 [C7] | < 4.60
S=C(Nc1ccccc1)Nc1ccc(Cl)cc1Cl [C8] | < 4.60
O=C(Nc1ccc(Cl)cc1)Nc1ccc(Cl)cc1 [C10] | < 4.60
O=C(Nc1cccc(Cl)c1)Nc1ccccc1O [C11] | < 4.60
O=C(Nc1ccccc1)Nc1nc2ccccc2[nH]1 [C13] | 4.60

What follows are compounds tested on CAL27 (assay: XTT cell viability assay, CAL27 HNSCC cells). Conditions: Homo sapiens, CAL-27; XTT assay, 48 h; SD 10%; mean of three experiments; read-out: IC50 27 (HNSCC).
Type: cell-based, human
Method: as §1

Compound | pIC50
O=C(Nc1ccc(Cl)cc1)Nc1ccc(Cl)cc1Cl [C6] | 4.60
Cc1ccc(NC(=S)Nc2ccccc2)cc1 [C7] | < 4.60
S=C(Nc1ccccc1)Nc1ccc(Cl)cc1Cl [C8] | < 4.60
O=C(Nc1ccc(Cl)cc1)Nc1ccc(Cl)cc1 [C10] | < 4.60
O=C(Nc1cccc(Cl)c1)Nc1ccccc1O [C11] | < 4.60
O=C(Nc1ccccc1)Nc1nc2ccccc2[nH]1 [C13] | 5.00

The compounds below were run on MDA-MD-231 (assay: XTT cell viability assay, breast cancer cells). Conditions: Homo sapiens, 48 h, SD 10%, mean of three experiments.
Type: cell-based, human
Method: as §1

Compound | pIC50
O=C(Nc1ccc(Cl)cc1)Nc1ccc(Cl)cc1Cl [C6] | < 4.60
Cc1ccc(NC(=S)Nc2ccccc2)cc1 [C7] | < 4.60
S=C(Nc1ccccc1)Nc1ccc(Cl)cc1Cl [C8] | < 4.60
O=C(Nc1ccc(Cl)cc1)Nc1ccc(Cl)cc1 [C10] | < 4.60
O=C(Nc1cccc(Cl)c1)Nc1ccccc1O [C11] | < 4.60
O=C(Nc1ccccc1)Nc1nc2ccccc2[nH]1 [C13] | 4.92

What follows are compounds tested on 786-O (assay: XTT cell viability assay, 786-O RCC cells). Conditions: Homo sapiens, 786-0; XTT assay, 48 h; SD 10%; mean of three experiments; read-out: IC50 786 (Kidney RCC).
Type: cell-based, human
Method: as §1

Compound | pIC50
O=C(Nc1ccc(Cl)cc1)Nc1ccc(Cl)cc1Cl [C6] | < 4.60
Cc1ccc(NC(=S)Nc2ccccc2)cc1 [C7] | < 4.60
S=C(Nc1ccccc1)Nc1ccc(Cl)cc1Cl [C8] | < 4.60
O=C(Nc1ccc(Cl)cc1)Nc1ccc(Cl)cc1 [C10] | < 4.60
O=C(Nc1cccc(Cl)c1)Nc1ccccc1O [C11] | < 4.60
O=C(Nc1ccccc1)Nc1nc2ccccc2[nH]1 [C13] | 4.70

Each compound was assayed on OCI-AML2 (assay: XTT cell viability assay, OCI-AML2 AML cells). Conditions: Homo sapiens, OCI-AML2, 48 h, SD 10%, mean of three experiments, read-out: IC50 L2 (AML).
Type: cell-based, human
Method: as §1

Compound | pIC50
O=C(Nc1ccc(Cl)cc1)Nc1ccc(Cl)cc1Cl [C6] | 4.60
Cc1ccc(NC(=S)Nc2ccccc2)cc1 [C7] | < 4.60
S=C(Nc1ccccc1)Nc1ccc(Cl)cc1Cl [C8] | < 4.60
O=C(Nc1ccc(Cl)cc1)Nc1ccc(Cl)cc1 [C10] | < 4.60
O=C(Nc1cccc(Cl)c1)Nc1ccccc1O [C11] | < 4.60
O=C(Nc1ccccc1)Nc1nc2ccccc2[nH]1 [C13] | 4.74
